In PMC11883425, “The synthesis and investigation of novel 3-benzoylbenzofurans and pyrazole derivatives for anti-HIV activity” (RSC Medicinal Chemistry, 2025):
Read-outs that look alike come from different tables or passages of the source.

Legend:
[1] = Cytotoxicity in TZM-bl cells by MTT assay; assay type: cell-based; settings: human, MTT assay, 48 hours, mean ± SEM
Description: (§1) All cell culture reagents and cell growth medium were purchased from Sigma-Aldrich/Merck. The cell lines are TZM-bl cells (HeLa cells derived cell that is genetically engineered to contain CD4 and CCR5/CXCR4 receptor) were obtained from NIH AIDS Reagent Program and HEK 293T (derived from human embryonic kidney cells) were received as donations from the lab of Dr Patience Mthunzi, Biophotonics laboratory, CSIR. […] The cells were cultured in T-75 culture flasks (Lasec SA (Pty) Ltd Johannesburg) in Dulbecco's modified Eagle's medium (DMEM) with 3.7 g L^−1 […], 0.05% (v/v) gentamicin/mL, 1% penicillin/streptomycin and 10% heat-inactivated fetal bovine serum (Celtic Molecular Diagnostics). All incubations for tissue cell culture were conducted in a 37 °C, 5% CO2, and 95% humidity incubator.
(§2) The cytotoxicity of compounds was evaluated in TZM-bl cells since these cells are susceptible to HIV infections and would be used for the evaluation of HIV entry inhibition by 3-benzoylbenzofurans and pyrazole derivatives.[74] MTT dye (3-(4,5-dimethylthiazol-2-yl)-2,5-diphenyltetrazolium bromide), which is reduced by viable cells to produce […] purple formazan, was then measured and correlated with cell viability.[75] TZM-bl cells were cultured to confluency in DMEM containing 10% FBS and harvested by centrifugation at 1200 × g for 5 minutes. The cells were counted at 1 × 10^5 cells per mL per well and were seeded overnight, followed by treatment with serially diluted compounds from 500 to 0.98 μM for 48 hours. The peripheral blood mononuclear cells (PBMCs) were isolated from the blood of HIV-negative volunteers, treated with phytohaemagglutinin-protein (PHA, 4 μg mL^−1) to stimulate the cells for 2 hours. PBMCs were diluted in RPMI-1640 medium, counted and 1 × 10^6 cells per mL were treated with compounds (500 to 0.98 μM) for 48 hours. Cells were harvested by centrifugation at 1200 × g for 5 minutes, and the supernatants were removed. For the PBMCs, MTS dye (3-(4,5-dimethylthiazol-2-yl)-5-(3-carboxymethoxyphenylo)-2-(4-sulfophenyl)-2H-tetrazolium) was used.[76] A 100 μL of tetrazolium dye (5 mg mL^−1 MTT prepared in DMEM or 1 : 9 dilution MTS prepared in RPMI-1640) was added to the wells and incubated for 4 to 24 hours. MTT samples were solubilized with 100 μL solubilization buffer (1 mL HCl: 9 mL isopropanol) for 30 minutes, and the absorbance reading was taken at 550 nm and 690 nm wavelengths. MTS sample readings were taken at 490 nm without a solubilization step using the SpectraMax^R Paradigm^R Multi-Mode Detection Platform plate reader (Molecular Devices, California, USA).

[2] = Cytotoxicity in PBMCs by MTS assay; assay type: cell-based; settings: human, peripheral blood mononuclear cells (PBMCs), PHA-stimulated, HIV-negative PBMCs
Description: as §2

HIV-1 PR = biological target: T1, HIV-1 PR (Human immunodeficiency virus type 1 group M subtype B, UniProt P04585); assay: HIV-1 protease inhibition assay (fluorogenic substrate); assay type: biochemical; settings: for SI (HIV-1 PR): CC50 PBMCs / IC50 HIV-1 PR
T1 construct: 2 μL recombinant HIV-PR (0.2 μg mL^−1) was added only to reaction wells
Description: Compounds were serially diluted in protease assay buffer (0.1 M CH3COONa, 1 M NaCl, 1 mM EDTA, 1 mM DTT, and 1 mg mL^−1 BSA; pH 4.7), making a final concentration of 75 to 9.4 μM, and 49 μL of compounds were added to wells. 49 μL protease substrate 1 (10 μM) was added to each well, and 2 μL recombinant HIV-PR (0.2 μg mL^−1) was added only to reaction wells except for reaction blanks, where it was replaced with 2 μL assay buffer. The solutions were mixed and incubated at 37 °C for 1 hour. Endpoint fluorescence readings at an excitation wavelength of 370 nm and an emission wavelength of 520 nm.

CAP210 pseudovirus = assay: Time of drug addition assay, CAP210 pseudovirus in TZM-bl cells; assay type: cell-based, HIV-1; settings: added 0, 2, 4, 6, 8 hours post-infection
Description: Fig. 5 Time of addition assay of CAP210 HIV infection treated with active compounds. TZM-bl cells were infected with CAP210 pseudoviruses and treated with compounds at various hours post-infection. NVP, 3g, and 4b were used at 3 μM, while 5f and 5h were used at 25 μM. The bars represent the mean ± SEM obtained from three independent experiments.
TZM-bl cells (1 × 10^5 cells per mL containing 7.5 μg mL^−1 DEAE-dextran) were infected with CAP210 pseudovirus at 400 TCID50 and incubated at 37 °C for 48 hours. The compounds were added to the wells at various time points (0, 2, 4, 6, and 8 hours) post-infection. […] After 48 hours, the cells were centrifuged at 1200 × g for 5 minutes, culture media was removed, leaving 50 μL, and Bright-Glo substrate (50 μL) was added to detect luciferase activity for 2 minutes at 37 °C. Inhibition of HIV pseudoviruses by active compounds was detected by reading for chemiluminescence using a Corning® 96-well white polystyrene using the SpectraMax® Paradigm® Multi-Mode Microplate Reader.

various HIV-1 subtypes = settings: literature reports; read-out: IC50 against various HIV-1 subtypes; cited from earlier work
[3] = tested on: HIV-1 subtype C pseudoviruses; settings: cited from earlier work
HIV-1 Q23 pseudovirus = assay: HIV-1 whole virus inhibition assay, Q23 pseudovirus (luciferase, TZM-bl cells); assay type: cell-based
Description: (§3) The HIV pseudoviruses were produced from the plasmids that were kindly donated by Dr Mthunzi-Kufa (CSIR, South Africa). Competent DH5α cells and STBL2 cells were transformed with envelope (CAP210.2.00.E8 and Q23.17) and backbone plasmid (HIV-1 SG3 ΔEnv) through heat-shock at 42 °C for 90 seconds and cooled in ice for 5 minutes. The transformed cells were grown in Luria Bertani medium containing 100 μg mL^−1 ampicillin and glycerol stocks were prepared. The transformed cells were grown at 37 °C in a 200 rpm shaking incubator overnight and the plasmids were isolated from the cells using a GeneJET plasmid Miniprep Kit (ThermoFisher Scientific Inc). The purity of the isolated plasmids was assessed for purity using Nanodrop. The HEK 293T cells were co-transfected with the backbone (10 μg) and envelope plasmids (5 μg) using the PolyFect Transfection Reagent (QIAGEN N.V) for 8–12 hours and the transfected cells were grown for 48 hours producing pseudoviruses which were collected, and stocks stored at −80 °C.
(§4) The compounds were serial diluted from 100 to1.56 μM in 96 well plates (Separation Scientific SA (Pty) Ltd) and incubated with either CAP210 or Q23 pseudoviruses (200 TCID50) and incubated for 1 hour. The TZM-bl cells (1 × 10^5 cells per mL containing 7.5 μg mL^−1 DEAE-dextran) were added and incubated for 48 hours. The 96 well plates were centrifuged, and the supernatant was removed leaving only 50 μL in each well. The Bright-Glo™ Luciferase substrate (Anatech Instruments (Pty) Ltd) (50 μL) was added to each well and incubated for 2 minutes in the dark and chemiluminescence readings were taken in a Corning® 96-well white polystyrene plate using a SpectraMax® Paradigm® Multi-Mode Microplate Reader.

HIV-1 CAP210 pseudovirus = assay: HIV-1 whole virus inhibition assay, CAP210 pseudovirus (luciferase, TZM-bl cells); assay type: cell-based
Description: as §3, §4

TZM-bl cells = assay: Cytotoxicity in TZM-bl cells by MTT assay; assay type: cell-based; settings: pyrazole vs benzofuran precursor
Description: as §1, §2

[4] = TZM-bl, 48 h, read-out: IC50 (μM) Q23, Q23 pseudovirus, TZM-bl cells, 48 hours
[5] = TZM-bl, 48 h, read-out: IC50 (μM) CAP210, CAP210 pseudovirus, TZM-bl cells, 48 hours
[6] = lowest concentrations tested, Fig. 3

Structure (SMILES)	CC50 at 48 h [1] [µM]	CC50 at 48 h [2] [µM]	IC50 (HIV-1 PR) [µM]	SI (HIV-1 PR) (HIV-1 PR)	inhibition of HIV infection by time of addition (CAP210 pseudovirus; 3 μM)	IC50 (HIV-1 Q23 pseudovirus; [4]) [µM]	IC50 (HIV-1 CAP210 pseudovirus; [5]) [µM]	other results
COc1ccc(C(=O)c2coc3ccc(O)cc23)c(OC)c1OC [3g, (5-Hydroxybenzofuran-3-yl)(2,3,4-trimethoxyphenyl)methanone]	79.9 ± 7.25	89.5 ± 11.6	70.9 ± 12.4	1.3	inhibit HIV infections for up to 8 hours			
Cc1ccnc2c1NC(=O)c1cccnc1N2C1CC1 [NVP, nevirapine, reference compound]					inhibit HIV infections for up to 8 hours	< 0.11	0.1 ± 0.002	IC50 (various HIV-1 subtypes): ~0.03 µM; IC50 [3]: 0.03 µM; inhibition of Q23 infection (HIV-1 Q23 pseudovirus; all tested concentrations): 99%; IC50 (HIV-1 Q23 pseudovirus; read-out: IC50 (μM) Q23, Q23 pseudovirus, TZM-bl cells, 48 hours): 0.11 ± 0.004 µM; inhibition of CAP210 infection (HIV-1 CAP210 pseudovirus; all tested concentrations): 99%
COc1ccc(OC)c(C(=O)c2coc3c(C)cc(OC)c(C)c23)c1 [4b, (2,5-Dimethoxyphenyl)(5-methoxy-4,7-dimethyl-1-benzofuran-3-yl)methanone]	8.42 ± 1.16	41.3 ± 6.78	57.5 ± 10.1	0.7	inhibit HIV infections for up to 8 hours			
COc1cc(F)ccc1-c1n[nH]cc1-c1cc(O)ccc1O [5f, 2-[3-(4-Fluoro-2-methoxyphenyl)-1H-pyrazol-4-yl]benzene-1,4-diol]	36.1 ± 7.95	98.2 ± 1.3	31.6 ± 3.83	3.1				anti-HIV activity (Q23) (HIV-1 Q23 pseudovirus; [6]): over 90%; anti-HIV activity (CAP210) (HIV-1 CAP210 pseudovirus; [6]): over 90%; inhibition of HIV infection by time of addition (CAP210 pseudovirus; 25 μM): only inhibited HIV infections when added on the onset of infection
COc1ccc(OC)c(-c2n[nH]cc2-c2c(O)cc(C)c(OC)c2C)c1 [5a, 2-[3-(2,5-Dimethoxyphenyl)-1H-pyrazol-4-yl]-4-methoxy-3,5-dimethylphenol]	88.9 ± 22.1					13.3 ± 1.12	18.4 ± 3.2	decrease in cytotoxicity versus precursor (TZM-bl cells): 1 fold
COc1ccc(OC)c(-c2n[nH]cc2-c2cc(O)ccc2O)c1 [5h, 2-[3-(2,5-Dimethoxyphenyl)-1H-pyrazol-4-yl]benzene-1,4-diol]	142 ± 13.2	83.2 ± 9.7	50.7 ± 0.78	1.6		< 10	< 10	IC50 (HIV-1 Q23 pseudovirus; {}): 8.14 ± 2.63 µM; IC50 (HIV-1 CAP210 pseudovirus; {}): 6.31 ± 0.31 µM; inhibition of HIV infection by time of addition (CAP210 pseudovirus; 25 μM): only inhibited HIV infections when added on the onset of infection
Cc1cn([C@H]2C[C@H](N=[N+]=[N-])[C@@H](CO)O2)c(=O)[nH]c1=O [zidovudine]								IC50 [3]: 0.05 µM
